Data set [1] can be described thus: Terminal plasma concentration in athymic nude mouse xenografted with human DLD1 cells at 50 mg/kg, po bid for 3 days. Type of data set: ADME, organism-based, DLD-1. More on the design: dose 50 mg/kg, route oral. Particulars: read-out: Cp(T). (In general: Xenograft models place foreign cells or tissue in a host animal.)
Data set [2] is described as follows: Toxicity in po dosed athymic nude mouse administered bid for 8 days. It is filed as organism-based. Particulars: in vivo.
Another data set deals with Histamine H1 receptor (Homo sapiens, UniProt P35367). The data set can be described thus: Binding affinity to histamine H1 receptor (unknown origin).
Another data set has as its target Cannabinoid receptor 1 (Homo sapiens, UniProt P21554). The data set can be described thus: Binding affinity to CB1 receptor (unknown origin).
The target in data set [3] is Poly [ADP-ribose] polymerase tankyrase-2 (Homo sapiens, UniProt Q9H2K2). The data set can be described thus: Inhibition of recombinant TNKS2 (unknown origin) after 60 mins by spectrophotometric analysis.
Data set [4] is described as follows: Intrinsic clearance in human liver microsomes. Conditions: read-out: CLH. It is filed as ADME. On the technique in general: Microsomes from liver hold many membrane-bound enzymes, among them those of drug oxidation.
A further data set relates to Mus musculus. The data set can be described thus: In vivo inhibition of tankyrase-mediated Wnt gene transcription in tumor of athymic nude mouse xenografted with human DLD1 cells at 200 mg/kg, po bid for 3 days by STF assay. More on the design: dose 200 mg/kg. It is filed as functional, organism-based. Conditions: DLD-1.
Data set [5] can be described thus: Intrinsic clearance in rat liver microsomes. Conditions: read-out: CLH. Type of data set: ADME.
The target in data set [6] is T1, Tankyrase 1/2 (Homo sapiens, UniProt Q9H2K2+O95271).
T1 sequence (Q9H2K2 whole entry): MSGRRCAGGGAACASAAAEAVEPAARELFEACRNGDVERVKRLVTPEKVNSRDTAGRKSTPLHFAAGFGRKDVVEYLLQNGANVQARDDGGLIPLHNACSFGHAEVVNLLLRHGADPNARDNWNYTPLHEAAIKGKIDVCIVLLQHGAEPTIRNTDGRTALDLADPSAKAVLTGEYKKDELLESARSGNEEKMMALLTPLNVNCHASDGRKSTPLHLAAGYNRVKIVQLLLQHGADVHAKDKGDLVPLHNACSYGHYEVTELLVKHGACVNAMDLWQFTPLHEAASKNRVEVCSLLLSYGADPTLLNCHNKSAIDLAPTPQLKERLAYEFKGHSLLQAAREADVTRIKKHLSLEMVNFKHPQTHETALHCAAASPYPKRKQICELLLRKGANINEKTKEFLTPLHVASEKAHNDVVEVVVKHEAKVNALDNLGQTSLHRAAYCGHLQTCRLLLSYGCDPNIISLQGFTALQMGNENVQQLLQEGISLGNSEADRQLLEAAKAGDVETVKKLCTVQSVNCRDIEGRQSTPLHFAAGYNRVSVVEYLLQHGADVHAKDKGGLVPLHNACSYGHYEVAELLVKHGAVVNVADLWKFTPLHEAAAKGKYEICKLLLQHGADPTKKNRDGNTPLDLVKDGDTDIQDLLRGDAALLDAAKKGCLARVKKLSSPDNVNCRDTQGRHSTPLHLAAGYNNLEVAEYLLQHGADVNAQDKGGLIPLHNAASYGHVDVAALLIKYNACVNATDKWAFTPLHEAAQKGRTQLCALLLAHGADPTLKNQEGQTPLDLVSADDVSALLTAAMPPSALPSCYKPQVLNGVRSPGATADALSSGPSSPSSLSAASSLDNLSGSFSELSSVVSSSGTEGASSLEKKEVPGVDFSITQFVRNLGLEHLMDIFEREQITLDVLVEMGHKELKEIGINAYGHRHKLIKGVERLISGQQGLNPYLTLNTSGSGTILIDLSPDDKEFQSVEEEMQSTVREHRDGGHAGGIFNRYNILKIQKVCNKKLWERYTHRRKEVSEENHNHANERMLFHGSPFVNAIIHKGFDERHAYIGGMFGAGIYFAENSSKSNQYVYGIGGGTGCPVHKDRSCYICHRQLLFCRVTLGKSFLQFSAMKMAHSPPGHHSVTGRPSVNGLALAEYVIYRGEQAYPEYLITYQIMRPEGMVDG
T1 sequence (O95271 whole entry): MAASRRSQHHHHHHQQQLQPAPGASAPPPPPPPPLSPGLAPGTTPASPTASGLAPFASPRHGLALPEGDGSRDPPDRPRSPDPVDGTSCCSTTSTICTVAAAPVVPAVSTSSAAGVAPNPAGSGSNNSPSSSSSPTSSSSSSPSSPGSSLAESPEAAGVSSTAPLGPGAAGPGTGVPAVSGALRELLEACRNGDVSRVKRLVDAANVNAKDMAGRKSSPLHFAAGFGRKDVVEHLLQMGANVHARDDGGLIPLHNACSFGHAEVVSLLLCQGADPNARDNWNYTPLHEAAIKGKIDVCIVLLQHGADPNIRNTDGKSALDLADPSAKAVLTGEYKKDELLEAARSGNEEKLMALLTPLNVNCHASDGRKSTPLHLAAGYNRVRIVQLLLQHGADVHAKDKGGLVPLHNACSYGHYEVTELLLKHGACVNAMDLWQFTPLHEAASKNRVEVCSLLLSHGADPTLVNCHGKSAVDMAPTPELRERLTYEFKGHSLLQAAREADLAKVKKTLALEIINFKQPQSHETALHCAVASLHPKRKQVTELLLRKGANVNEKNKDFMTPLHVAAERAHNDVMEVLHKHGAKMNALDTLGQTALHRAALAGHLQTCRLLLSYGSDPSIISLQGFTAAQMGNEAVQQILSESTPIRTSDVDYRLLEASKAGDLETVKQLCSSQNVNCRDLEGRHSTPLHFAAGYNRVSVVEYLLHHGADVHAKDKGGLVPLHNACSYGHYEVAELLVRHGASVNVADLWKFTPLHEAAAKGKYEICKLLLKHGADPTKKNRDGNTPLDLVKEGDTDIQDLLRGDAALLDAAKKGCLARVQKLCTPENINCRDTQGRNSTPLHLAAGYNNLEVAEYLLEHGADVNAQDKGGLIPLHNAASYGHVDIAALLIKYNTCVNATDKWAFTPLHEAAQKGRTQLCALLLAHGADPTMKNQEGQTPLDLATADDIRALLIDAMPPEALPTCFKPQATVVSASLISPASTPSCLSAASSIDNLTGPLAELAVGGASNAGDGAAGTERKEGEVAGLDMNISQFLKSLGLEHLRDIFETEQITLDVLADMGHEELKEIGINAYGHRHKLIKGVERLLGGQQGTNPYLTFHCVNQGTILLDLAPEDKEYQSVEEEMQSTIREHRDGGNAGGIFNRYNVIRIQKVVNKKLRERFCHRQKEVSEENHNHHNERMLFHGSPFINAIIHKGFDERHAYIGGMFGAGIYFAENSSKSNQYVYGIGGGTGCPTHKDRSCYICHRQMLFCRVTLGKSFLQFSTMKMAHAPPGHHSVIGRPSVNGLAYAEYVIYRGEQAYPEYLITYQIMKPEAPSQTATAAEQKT
The data set can be described thus: Inhibition of tankyrase in human SW480 cells assessed as axin2 accumulation after 24 hrs by Hoechst dye-based assay. It is filed as cell-based.

The target of data set [7] is T1, Tankyrase 1/2. The data set can be described thus: Inhibition of tankyrase in human DLD1 cells assessed as inhibition of Wnt gene transcription after 40 to 48 hrs by STF assay. It is filed as cell-based. Particulars: dld-1.

Broadly, the IC50 is the midpoint of a concentration-inhibition curve. A word on the EC50: it is the concentration at which the effect is half-maximal.

The source made the active and inactive calls. The rule behind the calls is not given here.

Chain of Cannabinoid receptor 1 (P21554 whole entry): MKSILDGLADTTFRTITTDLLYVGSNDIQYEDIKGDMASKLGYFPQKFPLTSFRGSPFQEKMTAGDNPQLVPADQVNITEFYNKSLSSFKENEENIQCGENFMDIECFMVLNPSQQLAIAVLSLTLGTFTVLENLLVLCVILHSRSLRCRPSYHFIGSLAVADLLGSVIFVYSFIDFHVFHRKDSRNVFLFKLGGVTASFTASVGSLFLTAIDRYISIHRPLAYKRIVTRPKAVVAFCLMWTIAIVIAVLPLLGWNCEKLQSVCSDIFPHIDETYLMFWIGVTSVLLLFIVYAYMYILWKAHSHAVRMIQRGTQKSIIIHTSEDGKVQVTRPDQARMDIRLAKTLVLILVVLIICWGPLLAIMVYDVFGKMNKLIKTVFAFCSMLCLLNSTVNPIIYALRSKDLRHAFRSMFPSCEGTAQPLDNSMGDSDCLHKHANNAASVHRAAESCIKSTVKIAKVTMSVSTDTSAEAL
Chain of Histamine H1 receptor (P35367 whole entry): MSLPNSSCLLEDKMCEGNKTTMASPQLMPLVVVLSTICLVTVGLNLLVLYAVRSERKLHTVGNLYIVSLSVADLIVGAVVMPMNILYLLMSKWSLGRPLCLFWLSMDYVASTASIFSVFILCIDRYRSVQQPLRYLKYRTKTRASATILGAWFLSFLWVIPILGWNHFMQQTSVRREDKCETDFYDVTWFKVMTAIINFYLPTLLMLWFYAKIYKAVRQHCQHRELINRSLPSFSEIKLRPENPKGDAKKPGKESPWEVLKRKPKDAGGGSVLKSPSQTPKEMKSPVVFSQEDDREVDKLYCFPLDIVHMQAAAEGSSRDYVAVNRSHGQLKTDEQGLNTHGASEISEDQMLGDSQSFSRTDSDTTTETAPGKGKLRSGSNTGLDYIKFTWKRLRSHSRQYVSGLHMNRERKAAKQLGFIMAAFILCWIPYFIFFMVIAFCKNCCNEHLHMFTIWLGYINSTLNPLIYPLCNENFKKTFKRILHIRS

On to `CC1(C)OC(=O)N([C@H]2CC[C@H](c3cnc(N)c(-c4ncccn4)c3)CC2)[C@H]1c1ccccc1`, for which the concentration at 72 h in data set [1] came to 120 nM. This compound returned an MTD at 192 h in data set [2] of 50 mg/kg. For the same compound, the IC50 at Histamine H1 receptor is greater than 48500 nM; on Cannabinoid receptor 1, greater than 48500 nM; in data set [3], 2 nM.

Take `CC1(C)OC(=O)N(c2ccc(-c3cnc(N)c(-c4ncccn4)c3)cc2)[C@H]1c1ccccc1`: the microsomal CLint in data set [4] is 33 µL/min/mg; in [5] it was 48 µL/min/mg. Also, the inhibition entry with Mus musculus is “Active”. Moreover, the EC50 at Tankyrase 1/2 [6] stood at 709 nM. The IC50 at Tankyrase 1/2 [7] worked out at 96 nM.

The record behind these values is ChEMBL document CHEMBL3098003, “Structure-based design of 2-aminopyridine oxazolidinones as potent and selective tankyrase inhibitors” (ACS Med Chem Lett, 2013).
